Test results as given in article PMC7062083, “Metabolite identification, tissue distribution, excretion and preclinical pharmacokinetic studies of ET-26-HCl, a new analogue of etomidate” (Royal Society Open Science, 2020).

Experiments:
[1] = Plasma protein binding, equilibrium dialysis, mouse plasma; format: in vitro ADME
Protocol: (§1) The PPB of ET-26-HCl in mouse, rat, beagle dog, monkey and human plasma was determined according to the equilibrium dialysis method. In brief, 1 ml of control plasma samples in dialysis bag was incubated in 10 ml of PBS containing ET-26-HCl at a final concentration of 2.21 × 10^2, 1.77 × 10^3 and 3.54 × 10^3 […] at 4°C with an equilibrium time of 9 h to reach the mass balance binding condition. A 100 µl aliquots of the PBS buffer and the plasma in the dialysis bag were transferred to 2 ml EP tubes and diluted to 995 µl with PBS and analysed on the LC–MS/MS system. The PPB (fppb) was calculated as follows: fppb=Din−Dout/Din×100% , where Din is the plasma drug concentration in the dialysis bag and Dout is the dialysate drug concentration.

[2] = Plasma protein binding, equilibrium dialysis, rat plasma; format: in vitro ADME
Protocol: as §1

[3] = Tissue distribution in Sprague Dawley rats; format: in vivo
Protocol: Concentrations of ET-26-HCl and ET-26-acid in biological samples were determined by liquid chromatography–tandem mass spectrometry (LC–MS/MS) after deproteinization with methanol. The bioanalytical method for simultaneous quantification of ET-26-HCl and ET-26-acid in the different matrix was fully validated according to FDA guidelines (electronic supplementary material, figure S1 and tables S1 and S2) in our previous study. Briefly, a 100 µl sample (plasma, tissue homogenate, bile, urine and faeces suspension) were spiked with 20 µl of IS solution and vortexed for 30 s. The mixture was then processed for protein precipitation with 300 µl methanol, followed by centrifugation at 12 000 r.p.m. for 5 min. Supernatant was collected and analysed by LC–MS/MS system.
Sprague Dawley (SD) rats (200–240 g) were provided by the Animal Facility at Sichuan University (Chengdu, China). All rats received a single 4.2 mg kg^−1 dose of ET-26-HCl intravenously. Rats were sacrificed and tissues, including heart, spleen, lung, intestine, colon, kidney, brain, fat, stomach, liver, muscle, testis and ovary were collected at 0, 1, 3, 6 and 10 h post-dosing (six rats/time-point). Tissue samples were rinsed thrice in ice cold saline, and blotted dry with filter papers. Weighed amount of tissues were homogenized in normal saline (thrice the tissue weight, w/v) and homogenates were stored at −80°C until analysis.

[4] = Identification of major metabolites in liver microsomes (UPLC-Q-TOF-MS); format: in vitro ADME, mouse, rat, beagle dog, monkey and human; settings: 10 µM ET-26-HCl, 1 mg ml^−1 liver microsomes, NADPH, 1 h
Protocol: The major metabolites of ET-26-HCl in liver microsomes from mouse, rat, beagle dog, monkey and human were determined by the UPLC-Q-TOF-MS system.
Reaction mixture containing 10 µM ET-26-HCl, […] MgCl2 and 1 mg ml^−1 liver microsomes in Tris-HCl phosphate buffer (pH 7.4) was pre-incubated for 6 min at 37°C, followed by the addition of NADPH. After incubation for 1 h, methanol was added to stop the reaction. Samples were centrifuged at 11 000 r.p.m. for 5 min; supernatants were collected and air dried at 40°C. Residues were dissolved in 100 µl acetonitrile/water (1:1, v/v) and analysed by the UPLC-Q-TOF-MS.
The UPLC-Q-OF-MS system was equipped with a Waters Synapt G2-Si quadrupole time-of-flight mass spectrometer (Q-TOF-MS), an ESI source and an ACQUITY UPLC H-CLASS liquid chromatography system. The chromatographic separations were achieved on an ACQUITY UPLC BEH C18 column (2.1 × 100 mm, i.d. 1.7 µm, Waters, USA) kept at 45°C and a flow rate of 0.4 ml min^−1. The mobile phase consisted of 5 mM ammonium acetate with 0.1% formic acid (A) and acetonitrile with 0.1% formic acid (B). The optimized gradient elution programme followed was 0 min to 2.1 min, A/B (19/1, v/v); 2.1 min to 7.3 min, A/B (1/4, v/v); 7.3 min to 8.0 min, A/B (1/9, v/v); and 8.0 min to 10 min, A/B (19/1, v/v). The injection volume was 5 µl. The mass experiment was operated in positive ion modes under the following parameters: turbo spray temperature, 120°C; ion spray voltage, 3.0 kV. Nitrogen was used as the nebulizer and the auxiliary gas; meanwhile, the nebulizer gas was set to 650 l h^−1 and kept at 350°C. The collision energy was set at 5–10 V and the collision energy spread was 4–6 V. TOF-MS was scanned with the mass range of m/z 50–600 with 200 ms accumulation time. A 400 ng ml^−1 leu-enkephalin (m/z 556.2771) was selected as an external standard for mass–charge ratio correction at a flow rate of 5 µl min^−1.

[5] = measured concentration 654 ng ml^−1
[6] = measured concentration 2.62 × 10^3 ng ml^−1, read-out: protein binding (converted)
[7] = measured concentration 5.23 × 10^3 ng ml^−1, read-out: protein binding (converted)
[8] = overall over the three concentrations, read-out: plasma protein binding rate (converted)

## COCCOC(=O)c1cncn1[C@H](C)c1ccccc1.Cl [ET-26-HCl, (R)-2-methoxyethyl1-(1-phenylethyl)-1H-imidazole-5-carboxylate hydrochloride]
[1]; [5]
  fraction unbound at 9 h, 654 ng ml^−1: 0.0453
[1]; [6]
  fraction unbound at 9 h: 0.0539
[1]; [7]
  fraction unbound at 9 h: 0.0702
[1]; [8]
  fraction unbound at 9 h: 0.0565 ± 0.000689
[2]; [5]
  fraction unbound at 9 h, 654 ng ml^−1: 0.181
[2]; [6]
  fraction unbound at 9 h: 0.15
[2]; [7]
  fraction unbound at 9 h: 0.178
[2]; [8]
  fraction unbound at 9 h: 0.17
[3]; i.v. 4.2 mg kg^−1
  time for complete excretion from kidney: ≤ 24 h
  time for elimination from the brain: ≤ 3 h
[3]; i.v. 4.2 mg kg^−1, at the onset
  concentration in the brain: 2.57 µg/mL
[3]; i.v. 4.2 mg kg^−1 ET-26-HCl
  time for clearance from tissues: around 3 h
  tissues with the highest concentration: Adipose tissue and liver
[4]
  source (liver microsomes) in which detected: human and dog
[4]; listed as M0
  source (liver microsomes) in which detected: human, dog
